Experimental data taken from PubChem BioAssay AID2423 (Broad Institute, 2010).
Inconclusive results are not listed. Calls of active or inactive are those of the source. The rule behind the calls is not given here.

System: C. albicans CaCi-8 + fluconazole, Alamar Blue growth, 48 h
Assay: resistant C. albicans growth inhibition with fluconazole, dose response, CaCi-8 strain, Alamar Blue fluorescence (AID 2423)

SMILES	EC50
Cc1ccc2nc(-c3ccc(NC(=S)NC4CC(C)(C)NC(C)(C)C4)cc3)sc2c1	1900 nM
CNC(=S)/N=C/NOCc1ccc(Cl)cc1Cl	460 nM
O=C(Nc1cccc(-c2nc3ccccc3s2)c1)c1cc(-n2cnnc2)ccc1Cl	1510 nM
COc1ccc(O)c(/C=N/NC(=O)c2ccc(N3CCCC3=O)cc2)c1	> 16000 nM (inactive)
CN(Cc1ccccc1)S(=O)(=O)c1ccc(C(=O)Nc2nnc(C3CC3)o2)cc1	291 nM
C[C@]12CC[C@H](O)C[C@@H]1CC[C@@H]1[C@@H]2CC[C@]2(C)C(=O)CC[C@@H]12	5650 nM
C[C@]12CCC3[C@@H](CC[C@H]4C[C@@H](O)CC[C@]34C)C1CCC2=O (stereo not given in full)	1480 nM
O=C(CSCc1ccc(Cl)cc1)Nc1cc([N+](=O)[O-])ccc1O	> 15000 nM (inactive)
CCOC(=O)c1c(-c2ccccc2Cl)cn2ccccc12	2120 nM
CCc1ccc(CNC(=O)CCC(=O)N2Cc3cccc(OC)c3Oc3ncccc32)cc1	> 16000 nM (inactive)
Cc1ccc(-c2nc3ccc(Cl)cc3c(=O)n2O)cc1	2160 nM
Cc1cc(NC(c2ccc(Cl)cc2)c2ccc3cccnc3c2O)no1 (stereo not given)	598 nM
COc1ccc(-c2cc(C(=O)NNC(=S)NC(=O)c3c(-c4ccccc4)noc3C)[nH]n2)cc1	2460 nM
CC(C)(C)C(=O)NC(=S)NNC(=O)c1ccc(-c2ccccc2)cc1	< 120 nM
CCC(=O)N1c2ccc(S(=O)(=O)CCC(=O)N3CCn4c3nc3ccccc34)cc2CC1C (stereo not given)	1120 nM
O=C(O)c1ccc(-c2nc(-c3ccc(Cl)c(Cl)c3)cs2)cc1	4160 nM
CC(C)COCc1ccc(O)c2ncccc12	1470 nM
C[C@H]1CCC/C=C/C2C[C@H](O)CC2[C@H](O)/C=C/C(=O)O1 (stereo not given in full)	2060 nM
O=[N+]([O-])c1cccc(-c2cc(-c3cc(Br)ccc3O)[nH]n2)c1	866 nM
CN(C)S(=O)(=O)c1cccc(NC(=S)N/N=C/c2cc(Br)ccc2O)c1	3840 nM
CNC1=C(N(C(C)=O)c2ccc(Br)cc2)C(=O)c2ccccc2C1=O	190 nM
O=C1c2ccccc2NC(c2ccc(-c3cccc(Cl)c3)o2)N1O (stereo not given)	2000 nM
C#CC[N+](C)(C)CCCCCCCCCCCC	8930 nM
Cc1ccc(O)c(N=Cc2cc(Cc3ccccc3)cc([N+](=O)[O-])c2O)c1	13700 nM
Cc1cc2c(cc(C(=O)OCC(=O)NCc3ccco3)n2C)s1	6460 nM
CCOC(=O)C(=Cc1cc(=O)c(OC)co1)C(=O)OCC	331 nM
COc1cccc(/C=N\NC(=O)c2ccc(Cn3cc(Br)c([N+](=O)[O-])n3)o2)c1O	5070 nM
COc1cccc2c(SCC(=O)N/N=C/c3ccc(O)c(O)c3)cc(C)nc12	> 16000 nM (inactive)

SMILES	EC50
CCCOc1cccc(-c2cc(C(=O)NNC(=S)NCC)c3ccccc3n2)c1	891 nM
CCN(CC)C(=O)Cn1c(=O)n(-c2ccccc2)c(=O)c2c3c(sc21)CCC3	> 16000 nM (inactive)
CCCCC(=O)NC(=S)Nc1cccc(NC(=O)c2ccco2)c1	1220 nM
CCCCCCCCC(=O)NNC(=O)c1c(O)c2ccccc2n(CC)c1=O	1910 nM
C=C1C(=O)O[C@@H]2C[C@@H](C)[C@@H]3C4OC4C(=O)[C@@]3(C)[C@@H](O)[C@H]12 (stereo not given in full)	219 nM
COc1cccc2sc(=NC(=O)CS(=O)(=O)c3ccc(Cl)cc3)n(C)c12	6530 nM
O=S(=O)(Nc1nc(-c2ccccc2)cs1)c1cc(Cl)ccc1Cl	2790 nM
CCOc1ccc(-c2ccc(NS(=O)(=O)c3ccc([N+](=O)[O-])cc3)cc2)nn1	2650 nM
COc1cccc(C(=O)Nc2nnc(-c3ccc(F)cc3)o2)c1	1690 nM
O=C(CCS(=O)(=O)c1ccccc1)Nc1nnc(C(F)(F)F)s1	> 16000 nM (inactive)
CC(C)(C)c1nnc(NC(=O)CCS(=O)(=O)c2ccccc2)s1	943 nM
Cc1cccc(Cc2cnc(N3C(=N)SC(C)C3=O)s2)c1 (stereo not given)	> 16000 nM (inactive)
CCc1cc(=S)n2c([nH]c3ccccc32)c1C#N	513 nM
O=C(Oc1c(Cl)cc(Cl)c2cccnc12)N1CCOCC1	> 15000 nM (inactive)
O=C(N/N=C/c1ccc(O)c2ncccc12)c1cccc(Br)c1	1200 nM
Cc1cc(OC(=O)c2ccco2)c2c3c(c(=O)oc2c1)CCCC3	953 nM
COc1ccc(Cl)cc1C(Nc1cccnc1)c1ccc2cccnc2c1O (stereo not given)	1020 nM
Cc1cc(NCCCn2ccnc2)n2ncc(-c3ccc(Cl)cc3)c2n1	1310 nM
Oc1c(CN2CCN(c3ccc(F)cc3)CC2)cc(Cl)c2cccnc12	572 nM
Oc1ccc(CN2CCN(Cc3ccccc3)CC2)c2cccnc12	> 16000 nM (inactive)
O=C(c1ccc(Cn2c(=S)[nH]c3ccccc3c2=O)cc1)N1CCN(c2ccccn2)CC1	695 nM
CCOC(=O)c1c(NC(=O)CN2CCN(C(=O)c3ccco3)CC2)sc2c1CCCC2	> 15000 nM (inactive)
CCCCCCCNC(=O)COc1ccc2c(c1)C(=O)CC(C)(C)O2	1100 nM
CC(C)(C)c1ccc(OCc2ccc(C(=O)N/N=C/c3ccc(O)c(O)c3)cc2)cc1	3080 nM
CCOc1cc(/C=C2\SC(=S)N(NS(=O)(=O)c3ccccc3)C2=O)ccc1O	2020 nM
COc1ccc(-c2nc(-c3ccncc3)no2)cc1OC	7540 nM
CCC(C)n1cnc2c(c1=O)c1nc3ccccc3nc1n2Cc1ccc(OC)cc1 (stereo not given)	615 nM
